PMC4767141, “Discovery of Potent, Orally Bioavailable, Small-Molecule Inhibitors of WNT Signaling from a Cell-Based Pathway Screen” (Journal of Medicinal Chemistry, 2015)
Read-outs that look alike come from different tables or passages of the source. Blank lines part the entries; values can stand above or below the compound they belong to.

Columns and labels:
[1] = pKa of the pyridine nitrogen; format: physicochemical; settings: measured at Cyprotex
Description: [32] pKa measurement was conducted at Cyprotex according to their published protocol: .

CYP450 2C9 = CYP450 2C9 (Homo sapiens, UniProt P11712); test: CYP450 inhibition; format: in vitro ADME
Sequence of CYP450 2C9 (P11712 whole entry): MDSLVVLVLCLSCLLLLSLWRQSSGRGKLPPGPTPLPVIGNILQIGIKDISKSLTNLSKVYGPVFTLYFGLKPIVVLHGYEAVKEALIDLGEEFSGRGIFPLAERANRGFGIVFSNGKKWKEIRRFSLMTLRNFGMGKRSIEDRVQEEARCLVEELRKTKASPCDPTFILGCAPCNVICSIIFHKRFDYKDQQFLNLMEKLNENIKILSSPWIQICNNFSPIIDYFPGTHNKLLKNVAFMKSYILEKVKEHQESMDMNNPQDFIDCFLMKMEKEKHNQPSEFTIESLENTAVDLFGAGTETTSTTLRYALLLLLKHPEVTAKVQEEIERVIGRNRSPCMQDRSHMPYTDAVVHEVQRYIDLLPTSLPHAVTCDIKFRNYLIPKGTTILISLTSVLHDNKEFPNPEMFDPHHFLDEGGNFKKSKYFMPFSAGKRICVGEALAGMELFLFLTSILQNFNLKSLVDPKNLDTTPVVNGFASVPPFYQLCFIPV

CYP450 2B8 = CYP450 2B8 (Homo sapiens, UniProt P20813); test: CYP450 inhibition
Sequence of CYP450 2B8 (P20813 whole entry): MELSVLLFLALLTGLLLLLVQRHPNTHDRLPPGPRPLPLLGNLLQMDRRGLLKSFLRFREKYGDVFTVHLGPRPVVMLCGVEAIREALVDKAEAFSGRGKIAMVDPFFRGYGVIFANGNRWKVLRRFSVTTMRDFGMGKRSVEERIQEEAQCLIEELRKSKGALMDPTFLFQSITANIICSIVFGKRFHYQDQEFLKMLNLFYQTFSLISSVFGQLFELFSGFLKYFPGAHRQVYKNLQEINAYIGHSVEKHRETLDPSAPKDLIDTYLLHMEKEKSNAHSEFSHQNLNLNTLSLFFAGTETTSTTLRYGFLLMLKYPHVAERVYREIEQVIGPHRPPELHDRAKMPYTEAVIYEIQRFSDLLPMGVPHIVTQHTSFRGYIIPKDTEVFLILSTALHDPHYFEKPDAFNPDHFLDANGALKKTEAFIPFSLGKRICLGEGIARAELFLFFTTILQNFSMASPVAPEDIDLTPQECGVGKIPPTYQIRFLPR

CYP450 1A2 = CYP450 1A2 (Homo sapiens, UniProt P05177); test: CYP450 inhibition
Sequence of CYP450 1A2 (P05177 whole entry): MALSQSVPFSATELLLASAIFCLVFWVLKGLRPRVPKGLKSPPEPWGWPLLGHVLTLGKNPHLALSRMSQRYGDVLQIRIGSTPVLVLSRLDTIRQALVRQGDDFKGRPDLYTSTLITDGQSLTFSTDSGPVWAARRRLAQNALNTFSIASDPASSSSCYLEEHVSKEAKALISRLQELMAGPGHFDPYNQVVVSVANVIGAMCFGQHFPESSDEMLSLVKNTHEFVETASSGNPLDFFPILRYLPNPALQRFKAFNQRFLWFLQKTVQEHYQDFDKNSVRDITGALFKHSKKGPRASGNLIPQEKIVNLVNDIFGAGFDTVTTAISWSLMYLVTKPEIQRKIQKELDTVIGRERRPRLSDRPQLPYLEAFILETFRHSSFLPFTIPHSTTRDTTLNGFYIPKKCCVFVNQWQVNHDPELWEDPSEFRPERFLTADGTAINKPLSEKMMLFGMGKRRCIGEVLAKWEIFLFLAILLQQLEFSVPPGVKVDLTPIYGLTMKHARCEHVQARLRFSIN

CYP450 2C19 = CYP450 2C19 (Homo sapiens, UniProt P33261); test: CYP450 inhibition; format: in vitro ADME
Sequence of CYP450 2C19 (P33261 whole entry): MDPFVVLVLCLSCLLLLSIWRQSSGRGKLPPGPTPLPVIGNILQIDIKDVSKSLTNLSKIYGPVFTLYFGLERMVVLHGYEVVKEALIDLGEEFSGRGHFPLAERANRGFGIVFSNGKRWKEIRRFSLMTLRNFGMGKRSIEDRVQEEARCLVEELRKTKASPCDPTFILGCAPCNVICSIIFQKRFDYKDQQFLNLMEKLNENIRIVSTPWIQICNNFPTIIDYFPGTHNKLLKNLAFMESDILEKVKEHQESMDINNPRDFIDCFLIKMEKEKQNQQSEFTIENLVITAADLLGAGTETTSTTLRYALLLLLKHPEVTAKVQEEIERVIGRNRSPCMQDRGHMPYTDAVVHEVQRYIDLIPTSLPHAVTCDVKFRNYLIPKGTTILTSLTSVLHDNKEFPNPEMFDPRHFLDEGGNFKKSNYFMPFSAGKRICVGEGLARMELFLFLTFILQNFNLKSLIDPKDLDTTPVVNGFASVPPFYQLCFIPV

[2] = Caco-2 Papp determination; format: in vitro ADME, human
CYP450 2D6 = CYP450 2D6 (Homo sapiens, UniProt P10635); test: CYP450 inhibition; format: in vitro ADME
Sequence of CYP450 2D6 (P10635 whole entry): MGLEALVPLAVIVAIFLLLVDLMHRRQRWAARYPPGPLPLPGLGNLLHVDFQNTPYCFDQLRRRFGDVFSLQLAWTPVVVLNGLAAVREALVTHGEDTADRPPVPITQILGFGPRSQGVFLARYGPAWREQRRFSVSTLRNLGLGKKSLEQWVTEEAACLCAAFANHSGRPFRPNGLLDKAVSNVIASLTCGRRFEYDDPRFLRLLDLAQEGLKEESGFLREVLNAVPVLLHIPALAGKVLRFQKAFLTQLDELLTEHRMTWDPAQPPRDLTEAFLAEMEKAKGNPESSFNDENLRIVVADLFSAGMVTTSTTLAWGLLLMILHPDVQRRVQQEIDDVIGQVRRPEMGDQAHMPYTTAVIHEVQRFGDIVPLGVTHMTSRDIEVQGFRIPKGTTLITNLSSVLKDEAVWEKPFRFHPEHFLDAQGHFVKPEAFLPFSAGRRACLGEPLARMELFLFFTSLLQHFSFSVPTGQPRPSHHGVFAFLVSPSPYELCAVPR

In vivo mouse PK = settings: iv dosing
Clint determination [3] = format: in vitro ADME; settings: human, microsomes, pH 7.4, human microsomes, read-out: Clint (μL/min/mg) Human
Clint determination [4] = format: in vitro ADME; settings: mouse, microsomes, pH 7.4, mouse microsomes, read-out: Clint (μL/min/mg) Mouse
Clint determination [5] = format: in vitro ADME; settings: rat, microsomes, pH 7.4, rat microsomes, read-out: Clint (μL/min/mg) Rat
[6] = Aqueous (thermodynamic) solubility; format: physicochemical; settings: phosphate buffer pH 7.4

- pKa [1]: 9.42
Compound: c1cc(N2CCCCC2)ccn1 [4-(piperidin-1-yl)pyridine]

Compound: NC(=O)C1CCN(c2c(Cl)cncc2Cl)CC1 [Compound 9, 1-(3,5-Dichloropyridin-4-yl)piperidine-4-carboxamide]
- IC50 (CYP450 2C9): > 20 µM
- IC50 (CYP450 2B8): > 20 µM
- IC50 (CYP450 1A2): > 20 µM
- IC50 (CYP450 2C19): > 20 µM
- Caco-2 efflux (efflux ratio, ER) [2]: no efflux
- Papp at 2 h, 1 μM ([2]; human, Caco-2, 1 μM, pH 7.4): 36 ×10⁻⁶ cm/s
- IC50 (CYP450 2D6): > 20 µM

- in vivo clearance (In vivo mouse PK): greater than liver blood flow
Compound: NC(=O)C1CCN(c2c(Cl)cncc2-c2ccc(N3CCOCC3)cc2)CC1 [Compound 38, 1-(3-Chloro-5-(4-morpholin-4-ylphenyl)pyridin-4-yl)piperidine-4-carboxamide]

- microsomal CLint at 1 μM (Clint determination [3]): 335 µL/min/mg
- microsomal CLint at 1 μM (Clint determination [4]): 827 µL/min/mg
Compound: O=C1NCCC12CCN(c1c(Cl)cncc1-c1ccc(N3CCOCC3)cc1)C2 (centres unmarked) [Compound 52]

- microsomal CLint at 1 μM (Clint determination [5]): 23 µL/min/mg
- microsomal CLint at 1 μM (Clint determination [3]): 67 µL/min/mg
- microsomal CLint at 1 μM (Clint determination [4]): 54 µL/min/mg
Compound: O=C1CC2(CCN(c3c(Cl)cncc3-c3ccc(N4CCOCC4)cc3)CC2)C(=O)N1 [Compound 54, 8-(3-Chloro-5-(4-morpholin-4-ylphenyl)pyridin-4-yl)-2,8-diazaspiro[4.5]decan-1,3-dione]

- microsomal CLint at 1 μM (Clint determination [4]): > 1000 µL/min/mg
Compound: O=C1NCCC12CCN(c1c(Cl)cncc1-c1ccc(N3CCCCC3)cc1)CC2 [Compound 65]

- microsomal CLint at 1 μM (Clint determination [3]): 100 µL/min/mg
Compound: O=C1NCCC12CCN(c1c(Cl)cncc1-c1ccc(-c3ccncc3)cc1)CC2 [Compound 69]

- solubility [6]: < 1 µg/mL
Compound: Cn1cc(-c2ccc(-c3cncc(Cl)c3N3CCC4(CC3)CC(=O)NC4=O)cc2)cn1 [Compound 81, 8-(3-Chloro-5-(4-(1-methyl-1H-pyrazol-4-yl)phenyl)pyridin-4-yl)-2,8-diazaspiro[4.5]decane-1,3-dione]
